Measured values taken from PubChem BioAssay (NCI).
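Following 48 hours of exposure in 96-well plates, responses at five concentrations were used to interpolate endpoints linearly. GI50 = concentration required for 50% inhibition of growth. TGI: total growth inhibition.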

What was measured:
Test in all cases: NCI-60 cell line screen, 48 h
SF-295 CNS = system: SF-295 CNS
MOLT-4 leukemia = system: MOLT-4 leukemia
M14 melanoma = system: M14 melanoma
HOP-92 NSCLC = system: HOP-92 NSCLC
HL-60(TB) leukemia = system: HL-60(TB) leukemia
UACC-62 melanoma = system: UACC-62 melanoma
HCT-116 colon = system: HCT-116 colon
RPMI-8226 leukemia = system: RPMI-8226 leukemia
COLO 205 colon = system: COLO 205 colon
RXF 393 renal = system: RXF 393 renal

SMILES	GI50 (SF-295 CNS) [µM]	TGI (SF-295 CNS) [µM]	GI50 (MOLT-4 leukemia) [µM]	TGI (MOLT-4 leukemia) [µM]	GI50 (M14 melanoma) [µM]	TGI (M14 melanoma) [µM]	GI50 (HOP-92 NSCLC) [µM]	TGI (HOP-92 NSCLC) [µM]	GI50 (HL-60(TB) leukemia) [µM]	TGI (HL-60(TB) leukemia) [µM]	GI50 (UACC-62 melanoma) [µM]	TGI (UACC-62 melanoma) [µM]	GI50 (HCT-116 colon) [µM]	TGI (HCT-116 colon) [µM]	GI50 (RPMI-8226 leukemia) [µM]	TGI (RPMI-8226 leukemia) [µM]	GI50 (COLO 205 colon) [µM]	TGI (COLO 205 colon) [µM]	TGI (RXF 393 renal) [µM]	GI50 (RXF 393 renal) [µM]
COc1cc(/C=C/c2cc(/C=C/c3ccc(O)c(OC)c3)n(C(=O)c3ccc(Cl)cc3)n2)ccc1O	3.13	12.4	1.64	11.9	1.5	15.2	3.97	22.2	1.58	7.62	2.72	10.1	2.15	47.9	1.83	6.33	3.78	13.4	–	–
C=CSCCC(N)C(=O)O (configuration not stated)	–	> 100	–	> 100	–	> 100	–	> 100	–	> 100	–	> 100	–	> 100	–	–	–	> 100	> 100	–
O=C1NC(=C(Cl)Cl)/C(=N/S(=O)(=O)N2CCCCC2)N1	5.14	17.3	–	–	2.06	4.54	1.75	3.33	1.86	4.52	1.61	3.04	1.85	3.39	0.553	4.23	2.01	3.88	3.39	1.84
C=C(c1ccc(OC)c(/C=C/C(=O)c2ccc3c(c2)OCO3)c1)c1cc(OC)c(OC)c(OC)c1	4.14	> 100	3.08	> 100	–	–	1.78	> 100	2.67	> 100	1.32	> 100	–	–	1.56	7.39	4.15	> 100	5.17	1.98
COc1cccc2c1c1ccc3c(c1n2C)C(=O)C=CC3=O	–	> 100	–	8.65	–	27.7	–	25.9	–	> 100	–	31.2	–	27.2	–	11.6	–	19.6	–	–
CC(C)(C)C1=CC(=C(P(=O)(O)O)P(=O)(O)O)C=C(C(C)(C)C)C1=O	–	> 50	–	> 50	–	> 50	–	> 50	–	> 50	–	> 50	–	> 50	–	> 50	–	–	–	–
N#C/C(=C\c1cc(O)cc(O)c1)C(N)=O	–	> 100	–	> 100	–	> 100	–	> 100	–	–	–	> 100	–	> 100	–	> 100	–	> 100	> 100	–
COc1ccc(Nc2nc3cc(N)cc(N)c3nc2-c2ccccc2)cc1	31.9	> 100	–	–	17.6	36.3	19.9	52.6	34.4	> 100	16.8	30.5	14.9	28.1	19.1	> 100	15.7	29.2	24.2	10.9
CCOC(=O)c1cc(C(=O)c2ccc(OC)cc2)n2ccc(/C=C/c3cc[n+](CC(=O)c4ccc(OC)cc4)cc3)cc12	> 100	> 100	1.91	5.53	1.77	3.8	1.23	3.15	1.78	4.24	–	–	1.55	3.36	1.65	4.85	–	–	–	–
Cc1ccc(O)c(NC(=O)c2cccc(Nc3ccnc(C(F)(F)F)c3)c2)c1	6.73	27.6	2.02	8.15	7.55	22.3	2.24	21.1	0.592	11.1	3.82	20.7	4.14	17.8	–	–	14.6	33.7	–	–
COC1CCC(OS(C)(=O)=O)C(CO)O1 (configuration not stated)	–	> 100	–	> 100	–	> 100	–	> 100	–	> 100	–	> 100	–	> 100	–	–	–	–	> 100	–
NC(=O)NNC(=O)CCn1[nH]c(=O)c(Cl)c(Cl)c1=O	–	> 100	–	–	–	> 100	–	> 100	–	> 100	–	> 100	–	> 100	–	–	–	> 100	> 100	–
C/C(=N\N=C(N)N)C(CN1CCCCC1)C(c1ccccc1)c1c(O)c2ccccc2oc1=O (configuration not stated)	–	> 100	–	–	–	> 100	–	> 100	–	> 100	–	> 100	–	> 100	–	> 100	–	> 100	> 100	–
CCc1cccc(C(C)C)c1NC(=O)C(=O)C1C(=O)Nc2ccccc2S1=O (configuration not stated)	–	> 100	–	> 100	–	> 100	–	> 100	–	–	–	> 100	–	> 100	–	> 100	–	> 100	> 100	–
COc1ccc(/C=C\c2cc(OC)c(OC)c(OC)c2)cc1OCC(=O)Nc1nc2ccc(F)cc2s1	4.29	> 100	3.07	> 100	6.82	> 100	5.73	> 100	–	–	4.05	> 100	4.48	> 100	6.36	> 100	7.78	> 100	> 100	6.29
